These results are taken from paper PMC2424174, “Suppression of Tumor Growth and Angiogenesis by a Specific Antagonist of the Cell-Surface Expressed Nucleolin” (PLoS ONE, 2008).

The subject of experiment [1] is MDA-MB-435 tumor-cell xenografts. The experiment can be described thus: MDA-MB-435 xenograft in nude mice. Conditions: HB-19 5 mg/kg, intraperitoneal, 3 times/week, 8 weeks, n = 10. It is filed as in vivo, human. The procedure:
Figure 8 HB-19 inhibits tumor growth in the nude mice. (A) HB-19 inhibits the growth of MDA-MB-231 tumor-cell xenografts. Cells (2×10^6) were injected subcutaneously into the right flank of female nude mice. Two weeks later, mice with a palpable tumor of approximately 40 mm^3 in volume were randomly separated into three groups (n = 5) and were given peritumoral injections 3 times/week of 0.1 ml PBS alone (Control), HB-19 (5 mg/kg), or Tamoxifen (Tmx) 10 mg/kg) for 6 weeks. (B) HB-19 inhibits the growth of MDA-MB-435 tumor-cell xenografts. Cells (1×10^6) were injected in the mammary fat pad of female nude mice. Two weeks later, mice with a palpable tumor were randomly separated into three groups (n = 10) and were given intraperitoneal injections 3 times/week of 0.1 ml PBS alone (Control), HB-19 (5 mg/kg), or 5-fluouracil (5-FU, 40 mg/kg) for 8 weeks. At the end of each experiment (in A and B), mice were sacrificed and the tumors were excised and weighed. The results are presented as the mean weight ±standard deviation (±S.D.) obtained from the number of mice in each group. (C, D) Inhibition of tumor development in mice treated by intraperitoneal (i.p.) and subcutaneous (s.c.) administration of HB-19. MDA-MB-231 tumor bearing mice in three groups (n = 10) were treated with HB-19 (10 mg/kg) by i.p. or s.c. injections, 3 times/week for 28 days. […]

In experiment [2] the test system is HUVECs. The experiment can be described thus: FACScan competition of HB-19/Btn binding to HUVECs. On the set-up: species or system human. Particulars: 1 µM HB-19/Btn, 4 °C, competitor 50 µM. The procedure:
Figure 3 Specific binding and entry of HB-19 in endothelial cells. (A) HB-19/Btn forms a stable complex with nucleolin expressed on the surface of HUVECs. Cells were incubated (45 min, 20°C) with 0, 1, 2, 4, 8 and 12 µM of HB-19/Btn before preparation of surface/cytoplasmic and nuclear extracts and recovery of surface nucleolin from the surface/cytoplasmic extracts as in Figure 2A. Material extracted from 2×10^7 and 2×10^6 cells was analyzed in panels Surface and Surface/Cytoplasm or Nucleus, respectively. Immunoblotting was with the anti-nucleolin mAb D3. (B) The specific binding of HB-19/Btn to HUVECs. The binding of 1 µM HB-19/Btn was studied at 4 °C by FACScan analysis. To show the specificity of binding, the reaction was carried out in the absence or presence of 50 µM HB-19, F3, or 9Arg peptides. The ordinate gives the relative cell number, whereas the abscissa gives the relative fluorescence intensity. (C) HB-19 entry in HUVECs. Cells were incubated with 5 µM of HB-19/Btn (1 hour, 37°C) before fixation in PFA (for surface binding) or PFA-Triton (for entry), respectively. Cells were then successively incubated with rabbit anti-biotin antibodies and goat Texas Red-conjugated anti-rabbit IgG, and processed for confocal microscopy. The scans of cells toward the middle cell layer are presented (with the DAPI stained nuclei).

Experiment [3] deals with MDA-MB-231 cells. The experiment can be described thus: BrdU incorporation and cell cycle analysis. Conditions: 10 µM HB-19, 48 hours, 10% FBS, compared to untreated cells. It is filed as cell-based, human. The procedure:
Figure 5 Cell cycle perturbations induced by HB-19 treatment. (A) Analysis of cell cycle parameters in HB-19 treated cells. MDA-MB-231 cells were cultured for 48 hours in medium without FBS (starvation) or in medium containing 10% FBS supplemented or not with 10 µM HB-19. DNA synthesis was quantified after BrdU incorporation and staining with anti-BrdU antibody and 7-AAD, by FACScan analysis. The histograms indicate the relative amount of cells in G1, S and G2/M cell phases. […] Serum starved MDA-MB-231 cells were stimulated with 10% FBS in the absence or presence of 2, 5, and 10 µM of HB-19. Five minutes after serum stimulation, cells were lysed directly in electrophoresis sample buffer and processed for immunoblotting using anti-phospho-p42/44 ERK1/2 and anti-p42/44 ERK antibodies. NS stands for non-stimulated cells.
Cell cycle analysis was performed using the FITC-BrdU flow kit (#559619) kit from BD Bioscience Pharmingen, according to the manufacturer's instructions. Briefly, MDA-MB-231 cells (1×10^5) were seeded in 12-multiwell and incubated 24 hours for adhesion. Cells were treated with HB-19 for 48 hours and labeled with BrdU (10 µM, 1 hour, 37°C), then they were trypsinized, fixed and treated with DNase (300 µg/ml, 1 hour, 37°C) before staining with anti-BrdU-FITC antibody and 7-AAD reagent. Cells were analyzed on a Becton Dickinson FACScan (fluorescence activated cell sorter), on FL1-H and FL3-H parameters for FITC and 7-AAD fluorescent dye respectively.

With “pseudo-tripeptide Lysψ(CH2N)-Pro-Arg coupled to a template (H2NLys-Lys-Lys-Gly-Pro-Lys-Glu-Lys-AhxCONH2) [HB-19, pseudopeptide presenting pentavalently the pseudo-tripeptide Lysψ(CH2N)-Pro-Arg coupled to a template]”, in experiment [1], the “inhibition of tumor growth” value was determined as 57%. In addition, the “prevention of HB-19/Btn binding” value in experiment [2] is reported as “prevented by the excess HB-19”. Also, in experiment [3], the “decrease of cells in S phase” value stood at 62%, the “increase of cells in G1 phase” value turned out to be 9% and the “increase of cells in G2/M phase” value is 31%.
